Data set [1] can be described thus: AM404 concentration in rat plasma after oral administration of acetaminophen. Type of data set: in vivo. Particulars: oral 20 mg/kg acetaminophen, data not shown.
The format of data set [2] is in vivo, rat.
The format of data set [3] is in vivo, rat. To be noted: for half-life: t1/2, rat plasma.
[4] abbreviates: male, Crl:CD(SD), rat, brain, po, 20 mg/kg.
The mark [5] stands for this setting: male, Crl:CD(SD), rat, plasma, po, 20 mg/kg.
[6] abbreviates: male, Crl:CD(SD), rat, plasma, po, 20 mg/kg, oral 20 mg/kg acetaminophen, mean.
The mark [7] stands for this setting: rat plasma, oral 20 mg/kg acetaminophen, mean, 20 mg/kg.
Setting [8] is: rat plasma, oral 20 mg/kg acetaminophen, mean.

“Also recorded” adds a separate entry of the source. Where a name gives a salt, the structure may show the parent alone. Read-outs that look alike come from different tables or passages of the source.

Broadly, the half-life is the time in which the quantity being followed falls by half. A lower half-life goes with rapid decline. In general, AUC(0-t) refers to the area under the concentration-time curve up to a stated or last time point. A word on the Cmax: it is the highest concentration seen after dosing.

In the case of `CCCCC/C=C\C/C=C\C/C=C\C/C=C\CCCC(=O)Nc1ccc(O)cc1` [AM404, N-(4-hydroxyphenyl) arachidonamide], in data set [1], the “concentration of AM404 in plasma” value is “undetectable; also recorded: unable to detect”. In addition, in data set [2] (calculated using AUC0-2h, oral 20 mg/kg acetaminophen, rat), the “conversion rate of acetaminophen to AM404” value is 0.0013%. In data set [2] (setting [4]), this molecule gave a half-life of 18.3 min and a k el of 0.000631 s⁻¹. In data set [2] (rat brain, oral 20 mg/kg acetaminophen, mean), the AUC0-2h was determined as 117 pg·h/g.

In the case of `CC(=O)Nc1ccc(O)cc1` [APAP, Acetaminophen, reference compound], in data set [3] (setting [5]), the AUC(0-t) stood at 8960 ng·h/mL, the Cmax stood at 15800 ng/mL and the k el was 0.000644 s⁻¹. The half-life in data set [3] (setting [6]) was 17.9 min.

Turning to `CC(=O)Nc1ccc(O[C@@H]2O[C@H](C(=O)O)[C@@H](O)[C@H](O)[C@H]2O)cc1` [Glu, acetaminophen glucuronide], in data set [3] (setting [5]), the AUC(0-t) worked out at 7990 ng·h/mL, the Cmax stood at 9300 ng/mL, the k el is 0.000533 s⁻¹ and the tmax is 15 min. The half-life in data set [3] (setting [6]) is 25 min. In addition, in data set [3] (setting [7]), the t1/2 turned out to be 21.7 min.

Consider `CC(=O)Nc1ccc(O)c(SC[C@H](NC(C)=O)C(=O)O)c1` [Mer, acetaminophen mercapturate acid], for which, in data set [3] (setting [8]), the AUC0-2h was 0.167 µg·h/g, the Cmax amounted to 0.154 µg/g, the Kel was 0.890 h⁻¹ and the t1/2 was 46.7 min. The tmax in data set [3] (setting [8]) is 30 min.

In data set [3] (setting [8]), `CC(=O)Nc1ccc(OS(=O)(=O)O)cc1` [Sul, acetaminophen sulfate] showed an AUC0-2h of 22.2 µg·h/g, a Cmax of 21.7 µg/g, a Kel of 1.67 h⁻¹ and a tmax of 15 min. The molecule also gave a t1/2 in data set [3] (setting [7]) of 25 min.

In data set [3] (setting [8]), `CC(=O)Nc1ccc(O)c(SC[C@H](N)C(=O)O)c1` [Sys, Acetaminophen cysteine] came in with an AUC0-2h of 0.251 µg·h/g, a Cmax of 0.258 µg/g, a Kel of 1.44 h⁻¹ and a t1/2 of 29 min. For the same molecule, the tmax in data set [3] (setting [8]) is 30 min.

Values taken from paper PMC4834746 (Anesthesiology and Pain Medicine, 2016).
